According to patent US20210322509A1, “Methods for Reducing Perinatal Morbidity and / or Mortality” (CHU SAINTE-JUSTINE, priority 2016, published 2021):
Non-standard residues stand in square brackets, D forms with d. Residues, ends and D or L forms follow the SMILES beside them. ξ: configuration not given here. dThr(3ξ) = CC(O)[C@@H](N)C(=O)O

Experiments:
[1] = system: timed-pregnant CD-1 mice exposed to IL-1β; test: Intrauterine IL-1β-induced perinatal inflammation model: neonatal survival and fetal growth; type: in vivo; conditions: for neonatal survival at birth: pups from IL-1β-treated dams (1 μg i.u., G16.5), compound 1 1 mg/Kg/12 h or Kineret 4 mg/Kg/12 h s.c., relative to vehicle
Description: Timed-pregnant CD-1 mice were exposed to 1 μg of IL-1β at 16.5 days of gestation (G16.5). Compound 1 (Cmpd 1), Kineret or vehicle was injected subcutaneously in the neck skin 30 minutes before stimulation with IL-1β, and mice delivery was assessed every hour until term (G19-G19.5).
One-way ANOVA compared to IL-1β+Veh. ***p<0.001. Control (n=9), sham (n=7), IL-1β (n=26), IL-1β+Compound 1 (n=22), IL-1β+Kin (n=11).
(§1) Intrauterine […] perinatal inflammation model. Timed-pregnant CD-1 mice at 16.5 days of gestation were steadily anesthetized with an isoflurane mask. After body hair removal from the peritoneal area, a 1.5 cm-tall median incision was performed with surgical scissors in the lower abdominal wall. The lower segment of the right uterine horn was then exposed and 1 μg of IL-1β was injected between two fetal membranes with care of not entering the amniotic cavity. The abdominal muscle layer was sutured and the skin closed with clips. One hundred μL of Compound 1 (1 mg/Kg/12 h), Kineret® (4 mg/Kg/12 h) or vehicle (sterile water) was injected subcutaneously in the neck 30 minutes before stimulation with IL-1β (to allow distribution of drugs to target tissues). Mice delivery was assessed every hour until term (G19-G19.5). Immediately after delivery, neonatal survival was assessed. Some pregnant mice were sacrificed before birth (24 h after the surgery) to either 1) perform caesarean section and photograph fetuses; 2) collect amniotic fluids; and 3) collect placentas. Only tissues and fluids from gestational sacs closer to the cervical end of the uterus were collected to ensure proximity with the IL-1β injection site. Tissues and fluids were snap-frozen in liquid nitrogen and kept at −80° C. for subsequent RNA purification or protein quantification by ELISA.

[2] = system: IL-1β, IL-6, IL-8 and PGF2α in amniotic fluid; test: ELISA of pro-inflammatory mediators in amniotic fluid 24 h after IL-1β injection; type: in vivo, mice; conditions: for levels of all pro-inflammatory mediators (IL-1β, IL-6, IL-8, PGF2α) in amniotic fluid: relative to vehicle
Description: FIGS. 2A to 2D show the levels of the pro-inflammatory mediators IL-1β (FIG. 2A), IL-6 (FIG. 2B), IL-8 (FIG. 2C) and PGF2a (FIG. 2D) in the amniotic fluid (AF) collected 24 h after IL-1β injection and treatment with vehicle, Compound 1 or Kineret, as assessed by ELISA. One-way ANOVA compared to IL-1β+Veh. **p<0.01, ***p<0.001. STATS: n=4; 4 gestational sacs from 2 animals in each groups.
as §1
Murine ELISA assays. […] The enzymatic reaction was stopped after 30 minutes and the plate was read at 450 nm, with wavelength correction set to 570 nm.

[3] = system: lungs of pups from IL-1β-treated dams; test: Lung histology (alveoli count, architecture) at PT15; type: in vivo, mice; conditions: for damages to lung architecture caused by IL-1β: histology
Description: One-way ANOVA compared to IL-1β+Veh. *p<0.05, ***p<0.001. Sham (n=6 pups), IL-1β (n=3 pups), IL-1β+Compound 1 (n=6 pups), IL-1β+Kin (n=8 pups).
(§2) Histology. Intestines (from ileum to rectum) and lungs of post-term (PT) 15 mice were collected and fixed in 10% formalin during >48 h and were coated in paraffin. Samples were cut with a microtome (thickness=[…]) and mounted on lamella. Intestines were colored using hematoxylin-phloxine-saffron (HPS), whereas lungs were colored using H&E. Images were taken with a slidescanner (Axioscan®). Quantification of images was performed under blind evaluation of groups using Zen2 software.
The effect of gestational inflammation on the development of the exposed fetuses was studied. At post-term day (PT) 15, the pups from IL-1β-treated dams were sacrificed, and histological analysis of major organs known to be affected by prematurity/gestational inflammation (the lung, the intestines and the brain) was performed. For the lung, a blind count of alveoli was performed using ImageJ.

[4] = system: intestines of pups from IL-1β-treated dams; test: Histology of ileum and colon (crypts, resident lymph nodes); type: in vivo, mice; conditions: for atrophies in intestinal crypts of the ileum: histology; for number of resident lymph nodes in the colon / size of resident lymph nodes in the colon: relative to vehicle
Description: FIG. 6A to 6D show representative histological analyses of the ileum of neonates from sham (FIG. 6A) and IL-1β-treated dams administered with vehicle (FIG. 6B), Compound 1 (FIG. 6C) or Kineret (FIG. 6D). Arrows indicate crypts. Scale, […].
FIGS. 7A and 7B show the number and size, respectively, of resident lymph nodes in the colon of neonates from sham and IL-1β-treated dams administered with vehicle, Compound 1 or Kineret. Sham (n=6 pups), IL-1β (n=3 pups), IL-1β+Compound 1 (n=6 pups), IL-1β+Kin (n=8 pups).
as §2
Potential damages to the ileum and in the colon were evaluated by histologic analyses. In the ileum, pups from IL-1β-treated dams administered with vehicle had consistent atrophies in their intestinal crypts (FIG. 6B), and this was not observed following administration of compound 1 (FIG. 6C) or Kineret® (FIG. 6D). In the colon, the number of resident lymph nodes per cm, and their size, were measured. Since lymph nodes are part of the innate immunity and play an important role in the immune surveillance of the colon, the number and size of resident lymph nodes is a marker of the immune integrity/health of the intestine.

| Molecule | neonatal survival at birth [1] | IL-8 levels in amniotic fluid, extent of effect ([2]; compared with compound 1) | levels of all pro-inflammatory mediators (IL-1β, IL-6, IL-8, PGF2α) in amniotic fluid [2] | damages to lung architecture caused by IL-1β [3] | alveoli count per mm^2 ([3]; pups from IL-1β-treated dams) | atrophies in intestinal crypts of the ileum [4] | number of resident lymph nodes in the colon [4] | size of resident lymph nodes in the colon [4] | IL-1β-induced growth arrest of fetuses ([1]; caesarean section of dams after 24 h exposition to intrauterine IL-1β) | reducing neonatal death, inflammation and inflammation-mediated damages in neonatal organs, compared with Kineret ([1]; summary statement) | number of alveoli per mm^2 compared with Kineret-treated group ([3]; pups from IL-1β-treated dams) |
| --- | --- | --- | --- | --- | --- | --- | --- | --- | --- | --- | --- |
| Kineret: recombinant form of the human interleukin-1 receptor antagonist (IL-1Ra), purchased from Swedish Orphan Biovitrum AB | but not Kineret®, significantly increased neonatal survival | at a lower extent relative to compound 1 | only had a significant effect on IL-8 levels | a more modest effect | only partially restored the alveoli count | not observed | not increased at statistically significant levels | significant increase |  |  |  |
| CC(C)C[C@@H](NC(=O)[C@@H](CCC(=O)O)NC(=O)[C@H](NC(=O)[C@H](NC(=O)[C@@H](Cc1ccc(O)cc1)NC(=O)[C@H](N)CCCNC(=N)N)C(C)O)C(C)C)C(=O)N[C@H](C)C(N)=O (stereo partly drawn) [compound 1] (H-[dR][dY][dThr(3ξ)][dV][dE][dL][dA]-NH2) | significantly increased neonatal survival |  | significant reduction | prevents the damages to lung architecture | completely restored the alveoli count | not observed | prevented | prevented | prevents this detrimental effect | significantly more effective | significantly higher |
